Reference: ChEMBL document CHEMBL4346657, “Anticancer activity, dual prooxidant/antioxidant effect and apoptosis induction profile of new bichalcophene-5-carboxamidines” (Eur J Med Chem, 2019)

Columns and labels:
[1] = test system: OVCAR-8; assay: Antiproliferative activity against human OVCAR8 cells assessed as growth inhibition after 48 hrs by sulforhodamine B assay; type: functional; settings: OVCAR-8, 48 h
[2] = test system: SF-268; assay: Antiproliferative activity against human SF268 cells assessed as growth inhibition after 48 hrs by sulforhodamine B assay; type: functional; settings: SF-268, 48 h
[3] = test system: A498; assay: Antiproliferative activity against human A498 cells assessed as growth inhibition after 48 hrs by sulforhodamine B assay; type: functional; settings: A498, 48 h
[4] = test system: NCI-H522; assay: Antiproliferative activity against human NCI-H522 cells assessed as growth inhibition after 48 hrs by sulforhodamine B assay; type: functional; settings: NCI-H522, 48 h
[5] = Antioxidant activity assessed as DPPH radical scavenging activity incubated in dark for 30 mins by spectrophotometric method relative to ascorbic acid; type: functional
[6] = test system: SK-OV-3; assay: Antiproliferative activity against human SKOV3 cells assessed as growth inhibition after 48 hrs by sulforhodamine B assay; type: functional; settings: SK-OV-3, 48 h
[7] = test system: WI-38; assay: Cytotoxicity activity against human WI38 cells assessed as reduction in cell viability measured after 48 hrs by MTT assay; type: cell-based; settings: WI-38, 48 h
[8] = Antioxidant activity assessed as ABTS radical scavenging activity by spectrophotometric method relative to ascorbic acid; type: functional
[9] = Haemolytic activity in human erythrocytes assessed as induction of hemolysis at 5 mM after 30 mins relative to H202; type: cell-based, Erythrocyte; settings: read-out: Activity
[10] = test system: BT-549; assay: Antiproliferative activity against human BT549 cells assessed as growth inhibition after 48 hrs by sulforhodamine B assay; type: functional; settings: BT-549, 48 h
[11] = test system: HT-29; assay: Antiproliferative activity against human HT-29 cells assessed as growth inhibition after 48 hrs by sulforhodamine B assay; type: functional; settings: HT-29, 48 h
[12] = test system: Erythrocyte; assay: Haemolytic activity in human erythrocytes assessed as induction of hemolysis at 0.625 mM after 30 mins relative to H202; type: cell-based; settings: erythrocyte, 0.5 h, 625 µM
[13] = test system: IGROV-1; assay: Antiproliferative activity against human IGROV1 cells assessed as growth inhibition after 48 hrs by sulforhodamine B assay; type: functional; settings: IGROV-1, 48 h
[14] = test system: HCT-116; assay: Antiproliferative activity against human HCT116 cells assessed as growth inhibition after 48 hrs by sulforhodamine B assay; type: functional; settings: HCT-116, 48 h
[15] = test system: Panel NCI-60 (60 carcinoma cell lines); assay: Antiproliferative activity against human NCI60 cells assessed as growth inhibition at 10 uM after 48 hrs by sulforhodamine B assay; type: functional; settings: read-out: GI
[16] = test system: NCI-H226; assay: Antiproliferative activity against human NCI-H226 cells assessed as growth inhibition after 48 hrs by sulforhodamine B assay; type: functional; settings: NCI-H226, 48 h
[17] = test system: NCI/ADR-RES; assay: Antiproliferative activity against human NCI-ADR-RES cells assessed as growth inhibition after 48 hrs by sulforhodamine B assay; type: functional
[18] = Antioxidant activity assessed as DPPH radical scavenging activity incubated in dark for 30 mins by spectrophotometric method relative to control; type: functional; design: concentration or dose not given beside the values
[19] = test system: RXF 393; assay: Antiproliferative activity against human RXF393 cells assessed as growth inhibition after 48 hrs by sulforhodamine B assay; type: functional; settings: RXF 393, 48 h
[20] = test system: Panel NCI-60 (60 carcinoma cell lines); assay: Antiproliferative activity against human NCI60 cells assessed as growth inhibition after 48 hrs by sulforhodamine B assay; type: functional
[21] = test system: Malme-3M; assay: Antiproliferative activity against human MALME-3M cells assessed as growth inhibition after 48 hrs by sulforhodamine B assay; type: functional
[22] = test system: OVCAR-4; assay: Antiproliferative activity against human OVCAR4 cells assessed as growth inhibition after 48 hrs by sulforhodamine B assay; type: functional; settings: OVCAR-4, 48 h
[23] = test system: SF-295; assay: Antiproliferative activity against human SF295 cells assessed as growth inhibition after 48 hrs by sulforhodamine B assay; type: functional; settings: SF-295, 48 h
[24] = test system: 786-0; assay: Antiproliferative activity against human 786-0 cells assessed as growth inhibition after 48 hrs by sulforhodamine B assay; type: functional; settings: 786-0, 48 h
[25] = test system: UACC-257; assay: Antiproliferative activity against human UACC257 cells assessed as growth inhibition after 48 hrs by sulforhodamine B assay; type: functional; settings: UACC-257, 48 h
[26] = test system: NCI-H23; assay: Antiproliferative activity against human NCI-H23 cells assessed as growth inhibition after 48 hrs by sulforhodamine B assay; type: functional; settings: NCI-H23, 48 h
[27] = test system: NCI-H460; assay: Antiproliferative activity against human NCI-H460 cells assessed as growth inhibition after 48 hrs by sulforhodamine B assay; type: functional; settings: NCI-H460, 48 h
[28] = Haemolytic activity in human erythrocytes assessed as induction of hemolysis at 10 mM after 30 mins relative to H202; type: cell-based, Erythrocyte; settings: read-out: Activity
[29] = test system: HCT-116; assay: Induction of apoptosis in human HCT116 cells assessed as increase in caspase 3 mRNA expression at 100 nM after 6 hrs hrs by SYBR green dye-based qRT-PCR analysis relative to control; type: functional
[30] = test system: SNB-75; assay: Antiproliferative activity against human SNB75 cells assessed as growth inhibition after 48 hrs by sulforhodamine B assay; type: functional; settings: SNB-75, 48 h
[31] = test system: U-251; assay: Antiproliferative activity against human U251 cells assessed as growth inhibition after 48 hrs by sulforhodamine B assay; type: functional; settings: U-251, 48 h
[32] = test system: MDA-MB-231; assay: Antiproliferative activity against human MDA-MB-231/ATCC cells assessed as growth inhibition after 48 hrs by sulforhodamine B assay; type: functional; settings: MDA-MB-231, 48 h
[33] = test system: SW-620; assay: Antiproliferative activity against human SW620 cells assessed as growth inhibition after 48 hrs by sulforhodamine B assay; type: functional; settings: SW-620, 48 h
[34] = test system: ACHN; assay: Antiproliferative activity against human ACHN cells assessed as growth inhibition after 48 hrs by sulforhodamine B assay; type: functional
[35] = test system: HCT-116; assay: […] in CDK1 mRNA expression in human HCT116 cells at 100 nM after 6 hrs hrs by SYBR green dye-based qRT-PCR analysis relative to control; type: functional
[36] = test system: OVCAR-3; assay: Antiproliferative activity against human OVCAR3 cells assessed as growth inhibition after 48 hrs by sulforhodamine B assay; type: functional; settings: OVCAR-3, 48 h
[37] = test system: MOLT-4; assay: Antiproliferative activity against human MOLT4 cells assessed as growth inhibition after 48 hrs by sulforhodamine B assay; type: functional; settings: MOLT-4, 48 h
[38] = test system: HCC 2998; assay: Antiproliferative activity against human HCC2998 cells assessed as growth inhibition after 48 hrs by sulforhodamine B assay; type: functional; settings: HCC 2998, 48 h
[39] = test system: Hs-578T; assay: Antiproliferative activity against human Hs578T cells assessed as growth inhibition after 48 hrs by sulforhodamine B assay; type: functional
[40] = test system: TK-10; assay: Antiproliferative activity against human TK10 cells assessed as growth inhibition after 48 hrs by sulforhodamine B assay; type: functional; settings: TK-10, 48 h
[41] = test system: HOP-62; assay: Antiproliferative activity against human HOP62 cells assessed as growth inhibition after 48 hrs by sulforhodamine B assay; type: functional; settings: HOP-62, 48 h
[42] = test system: RPMI-8226; assay: Antiproliferative activity against human RPMI8226 cells assessed as growth inhibition after 48 hrs by sulforhodamine B assay; type: functional; settings: RPMI-8226, 48 h

N=C(N)c1ccc(-c2ccc(-c3ccc4ccccc4c3)s2)s1
GI50 [1]: 2.27 µM
GI50 [2]: 2.25 µM
GI50 [3]: 1.7 µM
GI50 [4]: 1.96 µM
fold change (FC) [5]: 0.6
GI50 [6]: 20.2 µM
IC50 [7]: 81.3 µM
fold change (FC) [8]: 0.8
hemolysis at 0.5 h, 5000 µM [9]: 13%
GI50 [10]: 17.6 µM
GI50 [11]: 1.71 µM
Activity [12]: Non-Toxic
GI50 [13]: 2.16 µM
GI50 [14]: 1.77 µM
inhibition of growth at 10 µM [15]: 96.7%
GI50 [16]: 33.6 µM
GI50 [17]: 2.02 µM
inhibition [18]: 54.6%
GI50 [19]: 1.93 µM
GI50 [20]: 2.39 µM
LC50 [20]: 30.2 µM
TGI [20]: 6.02 µM
GI50 [21]: 3.1 µM
GI50 [22]: 1.91 µM
GI50 [23]: 2.27 µM
GI50 [24]: 2.14 µM
GI50 [25]: 16.1 µM
GI50 [26]: 2.95 µM
GI50 [27]: 1.95 µM
hemolysis at 0.5 h, 10000 µM [28]: 21.1%
fold change (FC) [29]: 2.59
GI50 [30]: 1.93 µM
GI50 [31]: 1.81 µM
GI50 [32]: 1.85 µM
GI50 [33]: 1.91 µM
GI50 [34]: 2.53 µM
fold change (FC) [35]: 0.93
GI50 [36]: 1.89 µM
GI50 [37]: 1.47 µM
GI50 [38]: 2.02 µM
GI50 [39]: 2.07 µM
GI50 [40]: 2.23 µM
GI50 [41]: 2.08 µM
GI50 [42]: 2.3 µM

N=C(N)c1ccc(-c2ccc(-c3ccccc3)o2)o1
GI50 [1]: 4 µM
GI50 [2]: 2.98 µM
GI50 [3]: 3.03 µM
GI50 [4]: 1.94 µM
fold change (FC) [5]: 0.3
GI50 [6]: 4.3 µM
IC50 [7]: 68.7 µM
fold change (FC) [8]: 0.4
hemolysis at 0.5 h, 5000 µM [9]: 30.1%
GI50 [10]: 4.13 µM
GI50 [11]: 2.11 µM
Activity [12]: Non-Toxic
GI50 [13]: 2.89 µM
GI50 [14]: 2.07 µM
inhibition of growth at 10 µM [15]: 68.2%
GI50 [16]: 5.7 µM
GI50 [17]: 2.82 µM
inhibition [18]: 30.9%
GI50 [19]: 2.33 µM
GI50 [20]: 2.4 µM
LC50 [20]: 22.4 µM
TGI [20]: 6.91 µM
GI50 [21]: 1.75 µM
GI50 [22]: 3.48 µM
GI50 [23]: 1.81 µM
GI50 [24]: 1.74 µM
GI50 [25]: 2.52 µM
GI50 [26]: 5.78 µM
GI50 [27]: 2.45 µM
hemolysis at 0.5 h, 10000 µM [28]: 66.7%
fold change (FC) [29]: 2.33
GI50 [30]: 1.6 µM
GI50 [31]: 2.22 µM
GI50 [32]: 2.04 µM
GI50 [33]: 1.79 µM
GI50 [34]: 2.56 µM
fold change (FC) [35]: 0.97
GI50 [36]: 3.13 µM
GI50 [37]: 3.31 µM
GI50 [38]: 1.61 µM
GI50 [39]: 3.81 µM
GI50 [40]: 3.32 µM
GI50 [41]: 3.59 µM
GI50 [42]: 2.89 µM

N=C(N)c1ccc(-c2ccc(-c3cc(Cl)cc(Cl)c3)o2)o1
GI50 [1]: 2.23 µM
GI50 [2]: 1.77 µM
GI50 [3]: 1.61 µM
GI50 [4]: 1.73 µM
fold change (FC) [5]: 0.2
GI50 [6]: 1.8 µM
IC50 [7]: 16 µM
fold change (FC) [8]: 0.2
hemolysis at 0.5 h, 5000 µM [9]: 57.1%
GI50 [10]: 1.97 µM
GI50 [11]: 1.5 µM
Activity [12]: Non-Toxic
GI50 [13]: 1.73 µM
GI50 [14]: 1.21 µM
inhibition of growth at 10 µM [15]: -57.8%
GI50 [16]: 2.2 µM
GI50 [17]: 1.84 µM
inhibition [18]: 15.7%
GI50 [19]: 1.79 µM
GI50 [20]: 1.74 µM
LC50 [20]: 10.7 µM
TGI [20]: 3.47 µM
GI50 [21]: 1.84 µM
GI50 [22]: 1.85 µM
GI50 [23]: 1.77 µM
GI50 [24]: 1.78 µM
GI50 [25]: 2.05 µM
GI50 [26]: 1.67 µM
GI50 [27]: 1.9 µM
hemolysis at 0.5 h, 10000 µM [28]: 89.3%
fold change (FC) [29]: 2.81
GI50 [30]: 1.41 µM
GI50 [31]: 1.82 µM
GI50 [32]: 1.85 µM
GI50 [33]: 1.68 µM
GI50 [34]: 1.71 µM
fold change (FC) [35]: 0.54
GI50 [36]: 1.7 µM
GI50 [37]: 1.69 µM
GI50 [38]: 1.84 µM
GI50 [39]: 2.22 µM
GI50 [40]: 1.86 µM
GI50 [41]: 1.89 µM
GI50 [42]: 2.13 µM
